Test results as given in PubChem BioAssay (NCI).
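Protocol summary: plate cells (96-well), add compound at 5 concentrations, incubate 48 h, interpolate endpoints linearly. TGI is the concentration that stops growth completely.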

Legend:
Assay in all cases: NCI tumour cell line growth inhibition, 48 h
[1] = system: LOX IMVI melanoma
[2] = system: MCF7 breast
[3] = system: SNB-75 CNS
[4] = system: XF 498 CNS
[5] = system: HCT-15 colon
[6] = system: OVCAR-3 ovarian
[7] = system: DLD-1 colon
[8] = system: HOP-18 NSCLC
[9] = system: A498 renal
[10] = system: KM20L2 colon
[11] = system: MALME-3M melanoma
[12] = system: SN12K1 renal
[13] = system: HL-60(TB) leukemia
[14] = system: UACC-257 melanoma
[15] = system: HT29 colon
[16] = system: SN12C renal
[17] = system: SW-620 colon
[18] = system: NCI-H23 lung
[19] = system: SK-OV-3 ovarian
[20] = system: SNB-19 CNS
[21] = system: P388 leukemia
[22] = system: SF-539 CNS
[23] = system: SK-MEL-2 melanoma
[24] = system: DMS 273 small cell lung
[25] = system: NCI/ADR-RES ovarian
[26] = system: RPMI-8226 leukemia
[27] = system: OVCAR-4 ovarian
[28] = system: NCI-H460 lung
[29] = system: HOP-92 NSCLC
[30] = system: OVCAR-5 ovarian
[31] = system: DMS 114 small cell lung
[32] = system: M19-MEL melanoma
[33] = system: SK-MEL-28 melanoma
[34] = system: HCT-116 colon
[35] = system: K-562 leukemia
[36] = system: CCRF-CEM leukemia
[37] = system: EKVX NSCLC
[38] = system: SF-295 CNS
[39] = system: MOLT-4 leukemia
[40] = system: SK-MEL-5 melanoma
[41] = system: HOP-62 NSCLC
[42] = system: UACC-62 melanoma
[43] = system: A549 NSCLC
[44] = system: KM12 colon
[45] = system: UO-31 renal
[46] = system: SF-268 CNS
[47] = system: OVCAR-8 ovarian
[48] = system: RXF 393 renal
[49] = system: SNB-78 CNS
[50] = system: P388/ADR leukemia
[51] = system: NCI-H522 lung
[52] = system: HCC-2998 colon
[53] = system: IGROV1 ovarian
[54] = system: U251 CNS
[55] = system: COLO 205 colon
[56] = system: CAKI-1 renal
[57] = system: NCI-H226 lung
[58] = system: ACHN renal
[59] = system: SR leukemia
[60] = system: M14 melanoma
[61] = system: RXF-631 renal
[62] = system: MDA-N
[63] = system: LXFL 529 NSCLC
[64] = system: MDA-MB-435
[65] = system: TK-10 renal
[66] = system: PC-3 prostate
[67] = system: T-47D breast
[68] = system: BT-549 breast
[69] = system: 786-0 renal
[70] = system: HS 578T breast
[71] = system: MDA-MB-231 breast
[72] = system: DU-145 prostate

SMILES: CCN1CCCC(NCc2c3ccccc3c(CNC3CCCN(CC)C3)c3ccccc23)C1 (stereo not given)
- TGI [1]: 22.3 µM
- TGI [2]: 15.2 µM
- TGI [3]: 25 µM
- TGI [4]: > 52.1 µM
- TGI [5]: 43.9 µM
- TGI [6]: 26.1 µM
- TGI [7]: 69.5 µM
- TGI [8]: > 46.6 µM
- TGI [9]: 28.2 µM
- TGI [10]: 20.9 µM
- TGI [11]: 40.9 µM
- TGI [12]: 23.1 µM
- TGI [13]: 22.7 µM
- TGI [14]: 26.4 µM
- TGI [15]: > 37.5 µM
- TGI [16]: 40.3 µM
- TGI [17]: 29.4 µM
- TGI [18]: 34.8 µM
- TGI [19]: 36.7 µM
- TGI [20]: 65.8 µM
- TGI [21]: 9.25 µM
- TGI [22]: 35.7 µM
- TGI [23]: 11.7 µM
- TGI [24]: 18.2 µM
- TGI [25]: 79.7 µM
- TGI [26]: 54.3 µM
- TGI [27]: 18 µM
- TGI [28]: 18.3 µM
- TGI [29]: 38.6 µM
- TGI [30]: 19.8 µM
- TGI [31]: 16.1 µM
- TGI [32]: 17.6 µM
- TGI [33]: 25.9 µM
- TGI [34]: 23.3 µM
- TGI [35]: 42.6 µM
- TGI [36]: 41.4 µM
- TGI [37]: 35.9 µM
- TGI [38]: 14.7 µM
- TGI [39]: 14.8 µM
- TGI [40]: 27.4 µM
- TGI [41]: > 63.4 µM
- TGI [42]: 26.8 µM
- TGI [43]: > 100 µM
- TGI [44]: 31.9 µM
- TGI [45]: 53.4 µM
- TGI [46]: 38.4 µM
- TGI [47]: > 74.4 µM
- TGI [48]: 11.8 µM
- TGI [49]: > 73.1 µM
- TGI [50]: 33.8 µM
- TGI [51]: 8.12 µM
- TGI [52]: 27.9 µM
- TGI [53]: 55.7 µM
- TGI [54]: 45.3 µM
- TGI [55]: 12.7 µM
- TGI [56]: 50 µM
- TGI [57]: 30 µM

SMILES: CCNC(=O)/C(=C/c1ccc(OC)cc1)c1cc(OC)c(OC)c(OC)c1
- TGI [58]: > 100 µM
- TGI [1]: > 100 µM
- TGI [2]: > 100 µM
- TGI [3]: > 73.4 µM
- TGI [4]: 85.3 µM
- TGI [5]: > 100 µM
- TGI [6]: 15 µM
- TGI [7]: > 100 µM
- TGI [59]: > 100 µM
- TGI [60]: > 100 µM
- TGI [8]: > 100 µM
- TGI [9]: > 63.8 µM
- TGI [10]: 13.5 µM
- TGI [11]: > 100 µM
- TGI [61]: > 100 µM
- TGI [62]: 4.26 µM
- TGI [63]: > 100 µM
- TGI [13]: 21.9 µM
- TGI [64]: > 20.5 µM
- TGI [14]: > 100 µM
- TGI [15]: 65.4 µM
- TGI [16]: > 100 µM
- TGI [17]: > 100 µM
- TGI [18]: > 85.3 µM
- TGI [65]: > 69.7 µM
- TGI [19]: > 100 µM
- TGI [20]: > 100 µM
- TGI [66]: > 100 µM
- TGI [22]: 45.9 µM
- TGI [23]: > 100 µM
- TGI [67]: > 100 µM
- TGI [24]: > 100 µM
- TGI [25]: > 28 µM
- TGI [26]: > 100 µM
- TGI [27]: > 100 µM
- TGI [28]: 57 µM
- TGI [29]: > 96.6 µM
- TGI [30]: > 100 µM
- TGI [68]: > 100 µM
- TGI [31]: > 57 µM
- TGI [32]: > 100 µM
- TGI [33]: > 100 µM
- TGI [69]: > 100 µM
- TGI [34]: > 100 µM
- TGI [70]: > 42.2 µM
- TGI [35]: > 100 µM
- TGI [71]: > 86.1 µM
- TGI [36]: > 100 µM
- TGI [37]: > 100 µM
- TGI [72]: 80.2 µM
- TGI [38]: 19.6 µM
- TGI [39]: > 100 µM
- TGI [40]: > 53.9 µM
- TGI [41]: > 100 µM
- TGI [42]: > 100 µM
- TGI [43]: > 100 µM
- TGI [44]: > 100 µM
- TGI [45]: > 100 µM
- TGI [46]: > 100 µM
- TGI [47]: > 100 µM
- TGI [48]: 11.2 µM
- TGI [49]: > 100 µM
- TGI [51]: 20.8 µM
- TGI [52]: > 39.3 µM
- TGI [53]: > 100 µM
- TGI [54]: 70 µM
- TGI [55]: 24.8 µM
- TGI [56]: > 100 µM
- TGI [57]: 88.7 µM

SMILES: O=C(N/C(=C\c1ccc([N+](=O)[O-])cc1)c1nc2ccccc2[nH]1)c1ccccc1
- TGI [58]: > 100 µM
- TGI [5]: > 100 µM
- TGI [7]: > 100 µM
- TGI [60]: > 100 µM
- TGI [8]: > 100 µM
- TGI [9]: > 100 µM
- TGI [10]: > 100 µM
- TGI [11]: > 100 µM
- TGI [61]: > 100 µM
- TGI [63]: > 100 µM
- TGI [13]: > 100 µM
- TGI [14]: > 100 µM
- TGI [15]: > 100 µM
- TGI [16]: > 100 µM
- TGI [17]: > 100 µM
- TGI [18]: > 100 µM
- TGI [65]: > 100 µM
- TGI [20]: > 100 µM
- TGI [22]: > 100 µM
- TGI [23]: > 100 µM
- TGI [26]: > 100 µM
- TGI [27]: > 100 µM
- TGI [28]: > 100 µM
- TGI [29]: > 100 µM
- TGI [30]: > 100 µM
- TGI [31]: > 100 µM
- TGI [32]: > 100 µM
- TGI [33]: > 100 µM
- TGI [69]: > 100 µM
- TGI [34]: > 100 µM
- TGI [35]: > 100 µM
- TGI [37]: > 100 µM
- TGI [38]: > 100 µM
- TGI [39]: > 100 µM
- TGI [40]: > 100 µM
- TGI [41]: > 100 µM
- TGI [42]: > 100 µM
- TGI [43]: > 100 µM
- TGI [44]: > 100 µM
- TGI [45]: > 100 µM
- TGI [46]: > 100 µM
- TGI [47]: > 100 µM
- TGI [48]: > 100 µM
- TGI [49]: > 100 µM
- TGI [51]: > 100 µM
- TGI [52]: > 100 µM
- TGI [53]: > 100 µM
- TGI [54]: > 100 µM
- TGI [55]: > 100 µM
